Assay results: publication PMC7442133, “Reduced treatment frequencies with bumped kinase inhibitor 1369 are effective against porcine cystoisosporosis” (International Journal for Parasitology: Drugs and Drug …, 2020)

How the values were obtained:
C. suis merozoites = experiment: Merozoite replication (growth) inhibition in infected IPEC-1 cultures, free merozoites counted 9 dpi; type: cell-based, Cystoisospora suis; settings: for Decrease of total merozoite counts: 400 nM once at 2 dpi, vs DMSO-only and no-treatment controls; for Merozoite replication at 9 dpi: 50 nM, P < 0.05 vs DMSO-only and no-treatment
Experimental: The laboratory strain C. suis Wien I ([Joachim and Mundt, 2011]), was maintained by passage in suckling piglets every 3–6 months and infectivity in vivo was assessed regularly at the Institute of Parasitology, University of Veterinary Medicine, Vienna. Oocysts were purified from collected feces, brought to sporulation and stored as described elsewhere ([Worliczek et al., 2013]). For in vitro studies, sporozoites were excysted ([Worliczek et al., 2013]), enumerated with a hemocytometer and used immediately for infection of semi-permanent intestinal porcine epithelial cells (IPEC-1). For in vivo studies, sporulated oocysts were washed with tap water and enumerated prior to infection of piglets.
IPEC-1 cells were maintained in culture medium at 37 °C and 5% CO2 (DHEM/HAM12 supplemented with 5% fetal calf serum and penicillin/streptomycin; Gibco via Thermo Fisher, Vienna, Austria). Cells (4 × 10^4) were used to seed 24-well plates and grown to confluence. All BKI compounds were stored as 20 mM stock solutions in 100% dimethyl sulfoxide (DMSO) at −20 °C. Cell viability in the presence of DMSO and BKIs was determined by colorimetric cell proliferation (WST-1) assays ([Shrestha et al., 2019]). In addition IPEC-1 cells were infected with serial dilutions of C. suis sporozoites, obtained after excystation to evaluate the growth curves of merozoites during 5–9 days of cultivation. To determine the effect of BKI 1369 on parasite replication, sporozoites (5 × 10^2) were added to each well one day after seeding of host cells and incubated with different concentrations of BKI 1369 at 40 °C for various time periods or a DMSO control, in triplicate.
In order to test whether BKI 1369 affects initial host cell invasion by C. suis, freshly excysted sporozoites were pre-incubated with BKI 1369 or DMSO for 6 h at 37 °C. Subsequently, sporozoites were washed with medium and used for infection of cell monolayers (5 × 10^2/well), in triplicate. Readout for both growth (merozoite replication) and invasion-inhibition experiments was microscopical evaluation by counting free merozoites 9 days post-infection (dpi) from culture supernatants. Supernatants were collected and free merozoites were counted in pooled samples at 9 dpi from quadruplicate wells in C-Chip disposable hemocytometers (NanoEnTek/Roth Lactan, Graz, Austria). All assays included DMSO and no-treatment controls in quadruplicate.
Statistical calculations for in vivo trials were performed with RStudio version 1.1.453 (RStudio Team, 2018), descriptive statistics with Microsoft Excel 2010 (Microsoft Inc., Vienna, Austria) and GraphPad Prism version 5.04 for Windows (GraphPad Software, San Diego, California USA). Differences in clinical and parasitological parameters between groups were analyzed with ANOVA in the case of normal distribution and variance homogeneity of the data, or a Kruskal-Wallis rank sum test if this was not the case. In the event of significance for the omnibus tests, parametric or non-parametric post-hoc tests for multiple comparisons were performed (according to Tukey and Conover, respectively), with P-value adjustment after Bonferroni. In vitro assays were evaluated by t-tests with significance reported at P < 0.05. For testing of efficacy in vitro, the percentage of growth/invasion inhibition was calculated as follows: % inhibition = (1−No. of merozoites counted at 9 dpi in BKI 1369 treated culture /No. of merozoites counted at 9 dpi in DMSO-only treated culture)x100

[1] = design: species or system piglets; settings: in vivo
Experimental: In experiment II, additional fecal samples were collected from piglets which shed oocysts after treatment with BKI 1369. Fecal DNA preparation was carried out by established procedures. PCR assays were used for the amplification of the genomic DNA fragments encoding CsCDPK1. PCR assays used primers upstream (166 and 91 base pairs of the start codon) and downstream (89 and 39 base pairs) of the CsCDPK1 stop codon fragment to generate templates for a subsequent nested run. Nested PCR amplification of the 5955 base pair fragment was achieved using the primer pair LIC_CsCDPK_Fwd: […] and LIC_CsCDPK_Rev: […]. PCR amplicons were cloned into TA TOPO 2 vectors (Invitrogen, Carlsbad, California, USA) and sequenced at GENEWIZ Inc. (Seattle, USA) to confirm the presence or absence of mutations that could affect drug sensitivity. Moreover, two piglets from each group were sacrificed at the end of the study (SD 29; 24 days after treatment) and tissue samples (liver, muscle, kidney, backfat, jejunum) were collected and processed similar to the fecal samples in experiment I, except that 20 nM propranolol was used as an internal standard instead of 100 μM, to determine residues of BKI 1369 and its metabolites.
Tissue and feces from vehicle control treated piglets were used as blanks or standards. Calibration curves for BKI 1369, BKI 1318, and BKI 1817 were prepared by adding 2 μL BKI in dimethylsulfoxide (DMSO) to 18 μL tissue or feces controls to generate nominal concentrations of 0.004, 0.008, 0.02, 0.04, 0.08, 0.2, 0.4, 0.8, 2, 5, 10, and 20 μM. Calibration curves were generated separately for each tissue type and feces.
5 μL of tissue homogenate curves and samples were added to tubes that contained 95 μL of 80:20 acetonitrile: water. As an internal standard, propranolol was added to each sample to a final concentration of 20 nM. Samples were dried to completion using a miVac Duo Concentrator (SP Scientific, Pennsylvania, USA) at 35 °C. Sample processing for feces was similar but utilized a slightly different process to concentrate the sample as explained in the methods. Dried Samples were sealed and shipped to the University of Washington for LC-MS/MS analysis.

SMILES | Decrease of total merozoite counts (C. suis merozoites) [%] | Residue in liver [1] | Merozoite replication at 9 dpi (C. suis merozoites; incubation 0–3 dpi) | Merozoite replication at 9 dpi (C. suis merozoites; incubation 3–6 dpi) | Concentrations giving significant reduction of merozoite replication at 9 dpi (C. suis merozoites; single application 2 dpi) [nM] | Quantifiable residue values, all tissue types [1] | Residue in fat [1] | Residue in jejunum [1]
CCOc1ccc2cc(-c3nn(CC4CCNCC4)c4ncnc(N)c34)ccc2n1 [BKI 1318] | 85.1 | -Samples above LoQ BKI 1318: N/A -Samples above background, but below LoQ BKI 1318: liver from piglet 304 and muscle from piglet 302 | – | – | – | – | – | –
CCOc1ccc2cc(-c3nn(CC4CCN(C)CC4)c4ncnc(N)c34)ccc2n1 [BKI 1369] | 96.1 | – | significantly inhibited merozoite replication | significantly inhibited merozoite replication | ≥ 200 | below 0.2 μM | above background, but below LoQ | above background, but below LoQ
